# Results from patent EP1976513B1 (priority 2006, dated 2007).
# Where two headings read alike, the source gives them in different places.
# Experiments:
# [1] = target: T1, serotonin transporter (Rattus norvegicus, UniProt P31652); assay: biochemical; conditions: rat synaptosomes, serotonin transporter (SERT)
# T1 construct: synaptosomes isolated in a 0.32M sucrose buffer from a male Wistar rat cortex; from tissue; host or cells: male Wistar rat cortex synaptosomes
# [2] = target: T2, dopamine transporter (Rattus norvegicus, UniProt P23977); assay: biochemical; conditions: rat synaptosomes, dopamine transporter (DAT)
# T2 construct: synaptosomes isolated in a 0.32 M sucrose buffer from a male Wistar rat striatum; from tissue; host or cells: male Wistar rat striatum synaptosomes
# [3] = target: T3, norepinephrine transporter (Rattus norvegicus, UniProt Q63380); assay: biochemical; type: biochemical; conditions: rat synaptosomes, norepinephrine transporter (NET)
# T3 construct: synaptosomes isolated in a 0.32 M sucrose buffer from a male Wistar rat hypothalamus; from tissue; host or cells: male Wistar rat hypothalamus synaptosomes
# [4] = target: T4, 5-HT Transporter (SERT) Sites in Mouse Brain (Mus musculus, UniProt Q60857); assay: Ex vivo [3H] citalopram binding after oral dosing; parameters: species or system C57BL/6 mice; conditions: for % Transporter Occupancy, SERT: 60 minutes after treatment, vs vehicle; for Mean Specific Binding (dpm) ± S.E.M., SERT: mice sacrificed 60 minutes after treatment, cortex
# T4 construct: Whole brains were removed and cortex and striata dissected out; from tissue; host or cells: C57BL/6 mouse frontal cortex homogenate
# [5] = target: T5, DA Transporter (DAT) Sites in Mouse Brain (Mus musculus, UniProt Q61327); assay: Ex vivo [3H] WIN 35428 binding after oral dosing; parameters: species or system C57BL/6 mice; conditions: for % Transporter Occupancy, DAT: 60 minutes after treatment, vs vehicle; for Mean Specific Binding (dpm) ± S.E.M., DAT: mice sacrificed 60 minutes after treatment, striatum
# T5 construct: Striatum was used to determine occupancy of DA transporter sites; from tissue; host or cells: C57BL/6 mouse striatum homogenate
# [6] = system: Rats; assay: Rat forced swim test; type: in vivo; conditions: PO, 24 hours and 30-60 minutes before the 5 minute test
# [7] = system: mice; assay: Mouse tail suspension test; type: in vivo; conditions: PO, 30-60 minutes before the test, 5 minutes recording
# [8] = system: mice; assay: Mouse locomotor activity; type: in vivo; conditions: PO; note: unit not given here
# Procedure, shortened: (§1)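 Animals pretreated with vehicle or compound, then placed individually in photocell cages. Horizontal and vertical activity recorded in 5-min bins for up to 60 min. Analysed by one-way ANOVA with post-hoc tests.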
# [9] = system: Rats; assay: Rat locomotor activity; type: in vivo; conditions: PO
# Procedure, shortened: as §1
# [10] = target: Norepinephrine Transporter (NET) Sites in Mouse Brain (Mus musculus, UniProt O55192); conditions: PO; for % Transporter Occupancy, NET: 60 minutes after treatment, vs vehicle; for Mean Specific Binding (dpm) ± S.E.M., NET: mice sacrificed 60 minutes after treatment, cortex
# [11] = literature; cited from earlier work
# [12] = target: serotonin uptake sites (Homo sapiens, UniProt P31645); conditions: compared with the racemic compound; U.S. Patent No. 6,372,919; cited from earlier work
# serotonin uptake sites, sequence (P31645 whole entry): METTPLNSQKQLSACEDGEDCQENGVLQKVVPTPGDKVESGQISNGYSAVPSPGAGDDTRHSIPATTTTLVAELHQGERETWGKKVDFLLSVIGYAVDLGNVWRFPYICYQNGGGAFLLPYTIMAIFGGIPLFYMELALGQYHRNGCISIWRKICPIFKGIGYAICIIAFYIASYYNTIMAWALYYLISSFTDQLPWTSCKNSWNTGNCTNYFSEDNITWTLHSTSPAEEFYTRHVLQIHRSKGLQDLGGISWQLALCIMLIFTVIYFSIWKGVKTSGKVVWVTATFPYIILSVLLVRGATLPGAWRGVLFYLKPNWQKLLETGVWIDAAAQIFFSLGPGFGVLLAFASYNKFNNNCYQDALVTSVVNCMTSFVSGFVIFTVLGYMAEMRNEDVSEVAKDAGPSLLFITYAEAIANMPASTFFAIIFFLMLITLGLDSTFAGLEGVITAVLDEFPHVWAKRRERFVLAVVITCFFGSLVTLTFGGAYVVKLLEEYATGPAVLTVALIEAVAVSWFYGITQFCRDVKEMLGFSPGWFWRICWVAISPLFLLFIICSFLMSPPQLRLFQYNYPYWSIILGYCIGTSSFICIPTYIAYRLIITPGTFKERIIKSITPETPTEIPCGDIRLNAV
# T5 sequence (Q61327 whole entry): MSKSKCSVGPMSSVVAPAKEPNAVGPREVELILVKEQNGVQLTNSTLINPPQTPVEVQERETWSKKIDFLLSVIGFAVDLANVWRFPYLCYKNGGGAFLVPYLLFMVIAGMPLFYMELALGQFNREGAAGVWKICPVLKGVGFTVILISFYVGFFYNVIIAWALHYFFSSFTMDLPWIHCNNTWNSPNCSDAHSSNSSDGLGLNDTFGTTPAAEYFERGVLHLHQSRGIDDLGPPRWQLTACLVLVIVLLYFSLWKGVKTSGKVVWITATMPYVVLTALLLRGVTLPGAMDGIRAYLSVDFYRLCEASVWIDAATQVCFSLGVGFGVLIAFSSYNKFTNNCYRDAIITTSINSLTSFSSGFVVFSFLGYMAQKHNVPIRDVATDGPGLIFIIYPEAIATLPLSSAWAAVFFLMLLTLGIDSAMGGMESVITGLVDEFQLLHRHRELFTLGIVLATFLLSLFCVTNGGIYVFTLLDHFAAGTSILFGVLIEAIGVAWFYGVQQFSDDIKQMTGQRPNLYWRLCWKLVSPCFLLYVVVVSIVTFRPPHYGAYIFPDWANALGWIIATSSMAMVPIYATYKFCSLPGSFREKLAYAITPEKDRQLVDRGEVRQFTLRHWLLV
# Norepinephrine Transporter (NET) Sites in Mouse Brain, sequence (O55192 whole entry): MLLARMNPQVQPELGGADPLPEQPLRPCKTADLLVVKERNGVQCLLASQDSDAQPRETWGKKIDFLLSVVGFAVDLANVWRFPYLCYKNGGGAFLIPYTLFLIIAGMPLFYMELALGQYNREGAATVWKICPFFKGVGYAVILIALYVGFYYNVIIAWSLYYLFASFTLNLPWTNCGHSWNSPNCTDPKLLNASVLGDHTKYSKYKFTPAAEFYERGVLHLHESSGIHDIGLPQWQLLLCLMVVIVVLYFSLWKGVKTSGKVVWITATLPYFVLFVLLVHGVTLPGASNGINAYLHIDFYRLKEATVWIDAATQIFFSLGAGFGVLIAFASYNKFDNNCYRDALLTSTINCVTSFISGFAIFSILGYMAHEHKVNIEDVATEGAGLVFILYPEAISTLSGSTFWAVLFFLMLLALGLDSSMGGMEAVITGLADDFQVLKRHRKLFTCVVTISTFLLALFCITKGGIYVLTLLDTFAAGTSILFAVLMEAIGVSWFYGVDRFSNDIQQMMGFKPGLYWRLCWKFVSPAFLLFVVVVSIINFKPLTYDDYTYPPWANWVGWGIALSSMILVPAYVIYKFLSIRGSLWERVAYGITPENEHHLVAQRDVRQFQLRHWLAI
# T4 sequence (Q60857 whole entry): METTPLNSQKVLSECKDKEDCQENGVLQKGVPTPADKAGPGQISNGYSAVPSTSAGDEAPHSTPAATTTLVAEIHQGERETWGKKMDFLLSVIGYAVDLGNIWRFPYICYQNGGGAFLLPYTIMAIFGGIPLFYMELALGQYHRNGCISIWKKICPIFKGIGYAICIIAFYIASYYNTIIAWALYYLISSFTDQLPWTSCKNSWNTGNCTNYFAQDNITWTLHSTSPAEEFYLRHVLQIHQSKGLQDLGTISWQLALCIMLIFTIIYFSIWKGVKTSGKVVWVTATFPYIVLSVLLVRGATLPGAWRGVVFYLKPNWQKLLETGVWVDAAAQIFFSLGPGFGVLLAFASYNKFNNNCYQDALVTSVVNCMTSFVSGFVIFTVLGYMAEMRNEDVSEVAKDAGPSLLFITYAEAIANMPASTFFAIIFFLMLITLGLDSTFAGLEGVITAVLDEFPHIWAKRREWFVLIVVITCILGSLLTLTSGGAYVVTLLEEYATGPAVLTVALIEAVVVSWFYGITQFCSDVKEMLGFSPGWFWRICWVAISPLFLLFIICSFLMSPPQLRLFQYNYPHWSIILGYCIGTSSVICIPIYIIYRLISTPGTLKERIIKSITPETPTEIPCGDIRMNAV
# T3 sequence (Q63380 1-617): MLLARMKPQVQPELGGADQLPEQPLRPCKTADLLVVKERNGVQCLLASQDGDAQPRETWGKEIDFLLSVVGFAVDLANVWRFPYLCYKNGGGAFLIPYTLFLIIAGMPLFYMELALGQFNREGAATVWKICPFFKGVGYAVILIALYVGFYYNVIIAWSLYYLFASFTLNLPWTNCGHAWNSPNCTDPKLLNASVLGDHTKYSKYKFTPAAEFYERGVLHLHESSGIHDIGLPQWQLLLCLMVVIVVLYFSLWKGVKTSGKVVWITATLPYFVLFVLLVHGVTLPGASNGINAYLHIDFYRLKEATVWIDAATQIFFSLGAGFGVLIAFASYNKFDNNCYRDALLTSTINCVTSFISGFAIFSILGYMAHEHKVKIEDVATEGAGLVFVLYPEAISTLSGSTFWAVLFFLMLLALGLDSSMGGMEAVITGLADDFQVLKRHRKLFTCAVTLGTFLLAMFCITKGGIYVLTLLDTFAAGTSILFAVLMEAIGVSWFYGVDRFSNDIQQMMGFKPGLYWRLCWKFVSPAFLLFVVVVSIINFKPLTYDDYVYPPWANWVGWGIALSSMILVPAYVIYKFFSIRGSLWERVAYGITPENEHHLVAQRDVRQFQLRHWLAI
# T2 sequence (P23977 whole entry): as the sequence (Q61327 whole entry) above, with P21S, V57A, S194A, R600H, V619L counted along it
# T1 sequence (P31652 whole entry): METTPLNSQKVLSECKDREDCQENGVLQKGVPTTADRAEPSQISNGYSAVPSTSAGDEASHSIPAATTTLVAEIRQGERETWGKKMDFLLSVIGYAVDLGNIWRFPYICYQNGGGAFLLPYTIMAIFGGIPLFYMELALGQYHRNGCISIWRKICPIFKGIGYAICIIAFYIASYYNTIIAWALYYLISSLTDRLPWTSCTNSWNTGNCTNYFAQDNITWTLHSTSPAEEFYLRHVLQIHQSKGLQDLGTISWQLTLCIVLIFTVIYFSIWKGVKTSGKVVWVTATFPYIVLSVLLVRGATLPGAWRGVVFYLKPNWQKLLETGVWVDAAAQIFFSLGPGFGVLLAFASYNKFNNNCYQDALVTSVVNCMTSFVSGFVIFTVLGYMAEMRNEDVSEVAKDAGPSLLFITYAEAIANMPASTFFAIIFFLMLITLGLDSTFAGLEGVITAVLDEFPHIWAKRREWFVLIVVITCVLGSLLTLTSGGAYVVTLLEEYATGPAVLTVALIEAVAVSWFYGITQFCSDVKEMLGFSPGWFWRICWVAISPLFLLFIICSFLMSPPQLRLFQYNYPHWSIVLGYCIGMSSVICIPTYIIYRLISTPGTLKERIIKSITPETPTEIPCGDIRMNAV
structure (smiles),measurement,setting,value
"CC(N(C)C)C1(c2ccc3ccccc3c2)CCCCC1 (single isomer, unassigned) [56 E1, N,N-dimethyl-1-(1-(naphthalen-2-yl)cyclohexyl)ethanamine]",IC50,[1]; Rat IC50 (nM) rSERT,2.9 nM
same,IC50,[2]; Rat IC50 (nM) rDAT,24 nM
same,IC50,[3]; Rat IC50 (nM) rNET,2.3 nM
same,"% Transporter Occupancy, SERT",[4]; 1 mg/kg,19%
same,"Mean Specific Binding (dpm) ± S.E.M., SERT",[4]; 1 mg/kg,2625 ± 138 dpm
same,"% Transporter Occupancy, SERT",[4]; 3 mg/kg,58%
same,"Mean Specific Binding (dpm) ± S.E.M., SERT",[4]; 3 mg/kg,1346 ± 109 dpm
same,"% Transporter Occupancy, SERT",[4]; 10 mg/kg,91%
same,"Mean Specific Binding (dpm) ± S.E.M., SERT",[4]; 10 mg/kg,278 ± 42 dpm
same,"% Transporter Occupancy, SERT",[4]; 30 mg/kg,95%
same,"Mean Specific Binding (dpm) ± S.E.M., SERT",[4]; 30 mg/kg,151 ± 60 dpm
same,"% Transporter Occupancy, DAT",[5]; 1 mg/kg,5%
same,"Mean Specific Binding (dpm) ± S.E.M., DAT",[5]; 1 mg/kg,41561 ± 1611 dpm
same,"% Transporter Occupancy, DAT",[5]; 3 mg/kg,4%
same,"Mean Specific Binding (dpm) ± S.E.M., DAT",[5]; 3 mg/kg,42127 ± 2130 dpm
same,"% Transporter Occupancy, DAT",[5]; 10 mg/kg,23%
same,"Mean Specific Binding (dpm) ± S.E.M., DAT",[5]; 10 mg/kg,33478 ± 1779 dpm
same,"% Transporter Occupancy, DAT",[5]; 30 mg/kg,67%
same,"Mean Specific Binding (dpm) ± S.E.M., DAT",[5]; 30 mg/kg,14637 ± 1567 dpm
same,Rat Forced Swim (Means ± S.E.M.) Climbing,[6]; 3 mg/kg,7.1 ± 1.6
same,Rat Forced Swim (Means ± S.E.M.) Immobility,[6]; 3 mg/kg,52.2 ± 1.6
same,Rat Forced Swim (Means ± S.E.M.) Swimming,[6]; 3 mg/kg,0.3 ± 0.2
same,Rat Forced Swim (Means ± S.E.M.) Climbing,[6]; 10 mg/kg,8.6 ± 0.9
same,Rat Forced Swim (Means ± S.E.M.) Immobility,[6]; 10 mg/kg,50.7 ± 1.0
same,Rat Forced Swim (Means ± S.E.M.) Swimming,[6]; 10 mg/kg,0.8 ± 0.3
same,Rat Forced Swim (Means ± S.E.M.) Climbing,[6]; 30 mg/kg,17.9 ± 2.4
same,Rat Forced Swim (Means ± S.E.M.) Immobility,[6]; 30 mg/kg,40.4 ± 2.7
same,Rat Forced Swim (Means ± S.E.M.) Swimming,[6]; 30 mg/kg,1.0 ± 0.4
same,Mouse Tail Suspension Mean Immobility Time ± S.E.M.,[7]; 3 mg/kg,184.0 ± 4.8
same,Mouse Tail Suspension Mean Immobility Time ± S.E.M.,[7]; 10 mg/kg,174.8 ± 6.1
same,Mouse Tail Suspension Mean Immobility Time ± S.E.M.,[7]; 30 mg/kg,141.9 ± 7.4
same,Mouse Locomotor Activity Total Distance Traveled ± S.E.M.,[8]; 3 mg/kg,410.2 ± 89.3
same,Mouse Locomotor Activity Total Distance Traveled ± S.E.M.,[8]; 10 mg/kg,440.2 ± 62.6
same,Mouse Locomotor Activity Total Distance Traveled ± S.E.M.,[8]; 30 mg/kg,252.2 ± 55.8
same,Rat Locomotor Activity Total Distance Traveled ± S.E.M.,[9]; 3 mg/kg,1227.9 ± 84.4
same,Rat Locomotor Activity Total Distance Traveled ± S.E.M.,[9]; 10 mg/kg,1230.8 ± 64.8
same,Rat Locomotor Activity Total Distance Traveled ± S.E.M.,[9]; 30 mg/kg,1359.8 ± 132.7
same,"% Transporter Occupancy, NET",[10]; 1 mg/kg,20%
same,"Mean Specific Binding (dpm) ± S.E.M., NET",[10]; 1 mg/kg,616 ± 50 dpm
same,"% Transporter Occupancy, NET",[10]; 3 mg/kg,52%
same,"Mean Specific Binding (dpm) ± S.E.M., NET",[10]; 3 mg/kg,368 ± 17 dpm
same,"% Transporter Occupancy, NET",[10]; 10 mg/kg,86%
same,"Mean Specific Binding (dpm) ± S.E.M., NET",[10]; 10 mg/kg,106 ± 20 dpm
same,"% Transporter Occupancy, NET",[10]; 30 mg/kg,98%
same,"Mean Specific Binding (dpm) ± S.E.M., NET",[10]; 30 mg/kg,19 ± 2 dpm
"CNC[C@@]1(c2ccc3ccccc3c2)CCCC[C@H]1O (single isomer, unassigned) [147 E1]",IC50,[1]; read-out: Rat IC50 (nM) rSERT,18 nM
same,IC50,[2]; read-out: Rat IC50 (nM) rDAT,1200 nM
same,IC50,[3]; read-out: Rat IC50 (nM) rNET,370 nM
"CNC[C@]1(c2ccc3ccccc3c2)CCCC[C@@H]1O (single isomer, unassigned) [147 E2]",IC50,[1]; read-out: Rat IC50 (nM) rSERT,1700 nM
same,IC50,[2]; read-out: Rat IC50 (nM) rDAT,1500 nM
same,IC50,[3]; read-out: Rat IC50 (nM) rNET,1200 nM
"CNC[C@@]1(c2ccc3ccccc3c2)CCCC[C@@H]1O (single isomer, unassigned) [148 E2]",IC50,[1]; read-out: Rat IC50 (nM) rSERT,330 nM
same,IC50,[2]; read-out: Rat IC50 (nM) rDAT,680 nM
same,IC50,[3]; read-out: Rat IC50 (nM) rNET,4900 nM
"Clc1ccc(C23CNCC2C3)cc1Cl (single isomer, unassigned; (+)) [DOV 21,947, (+)-1-(3,4-dichlorophenyl)-3-azabicyclo[3.1.0]hexane]",immobility in the tail suspension test,[11],dose-dependent reduction in immobility
same,affinity for the serotonin uptake sites,[12],significantly greater affinity
